Data from publication PMC3404738 (International journal for parasitology, drugs and drug …, 2012).

System: A. ceylanicum
Experiment: In vivo treatment in the hamster model of hookworm infection
Parameters: species or system Ancylostoma ceylanicum
Conditions: ABZ 10mg/kg once orally, hamsters, 20 DPI, vs infected controls

**Q.** `CCCSc1ccc2nc(NC(=O)OC)[nH]c2c1` [Albendazole, reference compound] was tested. Which Intestinal worm burdens did it give?
**A.** eliminated intestinal worm burdens
